Measurements reported in PubChem BioAssay AID2384 (Southern Research Specialized Biocontainment Screening …, 2010).
Values joined by “and” are separate entries in the source; they are usually repeats but may differ in a detail not shown here. Identical values can stand only once.

System: S. typhi GFP reporter counter-screen, fluorescence, 4 h
Test: S. typhi counter-screen signal inhibition – fluorescence, 4 h, counter-screen for PhoP regulon inhibitor project, dose response (AID 2384)

CC1=NN(c2nc3ccccc3[nH]2)C(=O)C1Cc1ccccc1 (stereo not drawn)
IC50: 34.2 µM

COc1ccc(CCN2CCC(Nc3nc4ccccc4n3Cc3ccc(F)cc3)CC2)cc1
IC50: 29.4 µM

Fc1ccc(Nc2ccnc(Nc3ccc(F)cc3)n2)cc1
IC50: 24.8 µM

CN1CCc2c(sc(NC(=O)c3ccc([N+](=O)[O-])o3)c2C(N)=O)C1
IC50: 17.1 µM

O=CN/N=C/c1c(O)ccc2ccccc12
IC50: 33.1 µM

COc1cc(/C=C/[N+](=O)[O-])ccc1O
IC50: 45 µM

CC1CCc2cc(F)cc3c(=O)c(C(=O)O)cn1c23 (stereo not drawn)
IC50: 15.6 µM

N#C/C(=C(/O)c1ccco1)c1nc2ccccc2s1
IC50: 57.6 µM

Cc1c(Cl)cccc1Nc1nc(NCCO)c2ccccc2n1
IC50: 40.1 µM

O=C1CN(/N=C/c2ccc([N+](=O)[O-])o2)C(=O)N1
IC50: 41.6 µM

Oc1[nH]c2ccccc2c1N=NC(=S)N1CCOCC1
IC50: 21.2 µM

Cc1ccc2nc(NCc3ccccc3)[nH]c2c1
IC50: 35.2 µM

Cc1cccc(Nc2nc(NCc3ccco3)c3ccccc3n2)c1
IC50: 14 µM

N#C/C(=C\c1ccc(O)c(O)c1)C(=O)NCc1ccccc1
IC50: 132 µM

CN1CCN(Cc2cc(COCc3ccccc3)c3cccnc3c2O)CC1
IC50: 36.8 µM

O=C(CC(=O)c1ccccc1O)c1cccc(F)c1
IC50: 28.9 µM

c1ccc2c(c1)OC(CCCN1CCCCC1)c1ccccc1S2 (stereo not drawn)
IC50: 76.4 µM

O=C(CN1C2=NCCCN2c2ccccc21)c1ccc2c(c1)OCO2
IC50: 126 µM

O=C1CSC(=S)N1c1cccc(O)c1
IC50: 59.9 µM

O=C(CC1NCCc2ccccc21)Nc1ccc(Oc2ccccc2)cc1 (stereo not drawn)
IC50: 51 µM

Cc1cc(C)c2sc(N(CCCN(C)C)C(=O)COc3ccc(Cl)cc3)nc2c1
IC50: 34.8 µM

CCC[C@H](CN[C@@H](CNC)[C@H](C)CC)NCCc1cc(C(F)(F)F)cc(C(F)(F)F)c1
IC50: 25.1 µM

CCN1CCN(C(=O)c2cc3cc(Cl)ccc3[nH]2)CC1
IC50: 30.4 µM

Oc1ccccc1-c1cc(C(F)(F)C(F)F)[nH]n1
IC50: 81.2 µM

c1cnc2c(c1)ccc1cccnc12
IC50: 35 µM and 31.3 µM

CCSc1ccc2c(c1)N(CCCN1CCN(C)CC1)c1ccccc1S2
IC50: 71.2 µM

CCN1CCCC1CNC(=O)c1cc2cc(F)ccc2[nH]1 (stereo not drawn)
IC50: 19 µM

CCCCCCCCCCCCCCCC[N+](C)(C)CC
IC50: 19.3 µM

Cc1cc(C)c2c(N)c3ccccc3nc2n1
IC50: 84.7 µM

CC(=O)NNC(=S)NC(=O)c1ccccc1
IC50: 18 µM

CCN1CCN(CCNC(=O)c2ccc3c(c2)N(Cc2ccc(F)cc2)C(=O)/C(=C/c2ccccc2)S3)CC1
IC50: 45.5 µM

C/C(=N/Nc1ccnc2cc(Cl)ccc12)c1ccc(N)cc1
IC50: 73.9 µM

CCCCOCCCNc1ncnc2c1[nH]c1ccccc12
IC50: 77.4 µM

CN(C)CCNc1oc(COc2ccc(-c3ccccc3)cc2)nc1C#N
IC50: 39 µM

COc1ccc2[nH]c3c(C)c4ccncc4c(C)c3c2c1
IC50: 21.5 µM

CN(C)CCNC(=O)/C(=C/c1ccc(-c2ccc(Cl)cc2)o1)NC(=O)c1ccccc1
IC50: 63.1 µM

COc1ccc(/C=C/C(=O)NC(=S)NNC(=O)c2cnccn2)cc1
IC50: 30.6 µM

OC(CNCC1CCCO1)Cn1c2ccc(Cl)cc2c2cc(Cl)ccc21 (stereo not drawn)
IC50: 23.7 µM

O=c1cc(-c2ccccc2)cc(-c2ccccc2)n1O
IC50: 32.3 µM

COc1cccc(/C=N\NC(=O)Cn2nnc3ccccc32)c1O
IC50: 94.6 µM

CC1CC(=O)c2c(cc3c(-c4c(O)cc(O)c5c(O)c6c(cc45)OC(C)CC6=O)c(O)cc(O)c3c2O)O1 (stereo not drawn)
IC50: 28.6 µM

CCOC(=O)C1=C(O)c2ccccc2C(=O)/C1=C\c1ccc(C)cc1
IC50: 137 µM

O=C(Nc1ccc(Cl)cc1)Nc1ccc2c(c1)N1CCN=C1S2
IC50: 76.3 µM

Clc1ccc(OCCCNCc2ccccc2)c2ccccc12
IC50: 18.3 µM

c1ccc2c(c1)CCc1ccccc1C2=C1CCNCC1
IC50: 58.2 µM

O=c1c2c([nH]c3ccccc13)CCCCC2
IC50: 113 µM

Cc1ccc(-c2c[n+](Cc3ccc(Cl)cc3)c3n2CCC3)cc1
IC50: 46 µM

CCCCCCCCCCC[N+](C)(C)CC/C=C1/c2ccccc2Sc2ccc(Cl)cc21
IC50: 53.6 µM
